Test system: mice with ConA induced liver damage
Test: ConA induced immunological liver damage model in mice
Assay type: in vivo, Kunming mice
Description: Kunming mice of clean grade (male, weight 20±2 g, supplied by the Laboratory Animal Center, Henan Province) are randomly divided into groups with 6 mice in each group. Bifendate (Xinchang Pharmaceutical Factory of Zhejiang Pharmaceutical Co., Ltd, 200 mg/kg) is used as positive control, andrographolide (AD) is provided by Furen Pharmaceutical Group Co., Ltd, and the test compounds are synthesized by the inventors with purities higher than 99.0%. Normal control group and model group are intragastrically given 0.5% sodium carboxymethylcellulose (CMC-Na), and test groups are given 0.5% CMC-Na suspensions with AD (0.88 mmol/kg), and low dosage (0.66 mmol/kg) and high dosage (0.88 mmol/kg) of compound A, B and C, respectively. The drugs are given for 3 days. One hour after the last administration, all mice except those in the normal control group are injected with a single dose of ConA (20 mg/kg) through the caudal vein. After 8 h, the eyeball is enucleated to collect blood, which is centrifuged at 3000 rpm for 15 min to separate serum. ALT and AST are tested according to the kit specification, respectively (Nanjing Jiancheng Bioengineering Institute). The left lobe of liver is taken to prepare 10% homogenate using physiological saline, MDA is determined according to the kit specification (Nanjing Jiancheng Bioengineering Institute). To 50 μL liver homogenate is added 2 mL of 0.5 mol/L KOH-methanol solution and kept at 50° C. water bath to isomerize for 20 minutes, then absorbance (A value) is measured at 278 nm, using the A value per mL of homogenate to represent the PGE2 content. Experimental data are expressed as average±standard deviation (X±s), analyzed with SPSS 11.5 statistic software, with P<0.05 meaning significant difference.
Kunming mice of clean grade (male, weight 20±2 g) are randomly divided into normal group, model group, bifendate (Zhejiang Wanbang Pharmaceutical Co., Ltd) positive control group (200 mg/kg), AD group (0.88 mmol/kg), low dosage group (0.66 mmol/kg) and high dosage (0.88 mmol/kg) group of compound D. ALT, AST, and MDA assay kits are purchased from Nanjing Jiancheng Bioengineering Institute. Other agents, drugs and experimental methods are the same as in EXAMPLE 1.
In experimental investigation of both models, the following grouping method is used: Kunming mice of clean grade (male, weight 20±2 g) are randomly divided into normal group, model group, bifendate group (200 mg/kg), AD group (0.88 mmol/kg), low dosage group (0.66 mmol/kg) and high dosage group (0.88 mmol/kg) of compound E, with 8 mice in each group. Other agents, drugs and experimental methods are the same as in EXAMPLE 1 and in EXAMPLE 4, respectively.

[1] = low dosage (printed 0.66 mol/kg), P<0.01

SMILES: C=C1CCC2C(C)(CO)C(O)CCC2(C)C1C=CC1=CC(=Cc2ccc(Cl)cc2)OC1=O (centres unmarked) [Compound A]
- liver histopathologic section (HE staining) (HE stain, 200x, FIG. 5): no observation of extravasated blood in sinus hepaticus, liver cells show slightly granular degeneration and vacuolar degeneration, and no spotted and focal necrosis region is observed
- serum enzyme level relative to normal level (high dosage 0.88 mmol/kg): essentially decreased to normal level
- enzyme (ALT, AST) lowering effect compared to AD group (high dosage 0.88 mmol/kg vs AD 0.88 mmol/kg, P<0.05): better enzyme lowering effect
- PGE2 content in liver homogenate vs model group (high dosage 0.88 mmol/kg, P<0.01): notably reduce PGE2 content
- PGE2 content in liver homogenate vs model group (low dosage 0.66 mmol/kg, P<0.05 (A), P<0.01 (D)): notably reduce PGE2 content
- MDA content in liver homogenate vs model group [1]: more obvious effect
- ability against liver lipid peroxidation compared with AD group [1]: stronger resistant ability against liver lipid peroxidation
- protective effect against liver damage induced by ConA (summary) (mice, intragastric, 3 days): notably protective effect
